{
  "source": "paper PMC11489133",
  "about": "“Obicetrapib exhibits favorable physiochemical and pharmacokinetic properties compared to previous cholesteryl ester transfer protein inhibitors: An integrated summary of results from non‐human primate studies and clinical trials” (Pharmacology Research & Perspectives, 2024)",
  "format_in_all_cases": "in vivo, humans",
  "key": {"[1]": {"experiment": "absorption, metabolism and excretion study of a single 10 mg dose of 14C-obicetrapib (NCT02408055, TA‐8995‐07)", "method": "Figure 2 illustrates the obicetrapib (TA‐8995) M1 detected above the LLOQ (>1% radioactivity) in human plasma expressed as the percent radioactivity profiled. A study (NCT02408055) was conducted in healthy male participants (n = 6) to assess the absorption, metabolism, and excretion of a single dose of 10 mg of ^14C‐obicetrapib (TA‐8995‐07 CSR, NewAmsterdam Pharma). One of the objectives of the study was to determine the chemical structure of ^14C‐obicetrapib M1 that represent ≥10% of total radioactivity in plasma. The participants received 10 mL ^14C‐obicetrapib oral suspension, containing 10 mg and 100 μCi of ^14C‐obicetrapib in the fasted state. Clinical samples for analysis were selected based upon the levels of radioactivity present as determined by liquid scintillation counting and were stored at below −50°C (nominally −80°C) when not in use. Plasma samples from the participants were sequentially extracted with acetonitrile at five time points. The resulting extracts were concentrated by evaporation and reconstituted in mobile phase HPLC prior to analysis by radio‐HPLC. All samples were analyzed by liquid scintillation counting to evaluate the recovery of radioactivity. The profiles of the radiolabeled components in each sample of plasma were determined by HPLC analysis with off‐line radio‐detection. Selected samples from each matrix were then further analyzed by high‐resolution mass spectrometry to investigate the identity of M1. In plasma, the predominant metabolite component was unchanged obicetrapib (~79% of total drug‐related exposure), and the most abundant plasma M1 were M1 and P9 of which each accounted for ~4% of total exposure (Figure 2). No significant differences in the metabolite profiles were observed across the samples obtained from the six participants (TA‐8995‐07 CSR, NewAmsterdam Pharma)."}, "[2]": {"experiment": "Phase II trials of obicetrapib, integrated summary of post-treatment elimination", "excerpt": "The Phase II trials of obicetrapib described herein include the TA‐8995: Its Use in Patients with Mild Dyslipidaemia (TULIP)[10] study, the Randomized Study of Obicetrapib as an Adjunct to Statin Therapy (ROSE),[11] the Study to Evaluate the Effect of Obicetrapib in Combination with Ezetimibe as an Adjunct to High‐Intensity Statin Therapy (ROSE2),[12] and A Dose‐Finding Study in Japanese Patients to Evaluate the Effect of Obicetrapib as an Adjunct to Stable Statin Therapy (TA‐8995‐203).[13]"}, "[3]": {"experiment": "ROSE2 Phase II trial, plasma concentrations of obicetrapib", "details": "for % Change in Plasma Level: Week 12 to Week 16, mean (SD); for concentration at 12 weeks / concentration at 16 weeks: both sexes, human, plasma, oral, read-out: Mean (SD) Plasma Level; for concentration at 12 weeks: Week 12 (EOT), on‐treatment PK population; for concentration at 16 weeks: Week 16, four weeks after the end of treatment", "method": "The PK parameters and the effect of food on the bioavailability of obicetrapib in humans have been examined in both Phase I[9] (TA‐8995‐09 CSR, NewAmsterdam Pharma) and Phase II trials.[10], [11], [12], [13] The trials were performed in accordance with the Declaration of Helsinki, Good Clinical Practice Guidelines, and applicable regulatory requirements. Approval was obtained from the relevant ethical review boards for each site. All volunteers provided written informed consent prior to participation. PK parameters were determined using WinNonlin software, version 4.1 or higher (Pharsight/Certara Corporation, USA). Concentrations of obicetrapib were summarized for each treatment group using descriptive statistics.\nROSE2 (NCT05266586) was a placebo‐controlled, double‐blind, randomized trial conducted to evaluate the efficacy, safety, and tolerability of obicetrapib or obicetrapib plus ezetimibe as an adjunct to high‐intensity statin therapy.[12] An exploratory endpoint of the trial included assessing the plasma concentrations of obicetrapib during treatment and 4 weeks after the end of treatment. […] One hundred nineteen participants (mean age: 62.6 years; 63.9% male; 84.5% White; mean BMI: 30.9 kg/m^2) were enrolled at 18 clinical research sites in the United States and randomized in a 1:1:1 ratio to one of three treatment groups: (1) placebo; (2) obicetrapib monotherapy (one 10 mg obicetrapib tablet plus one placebo capsule for ezetimibe); or (3) combination therapy (one 10 mg obicetrapib tablet plus one 10 mg ezetimibe capsule). The participants were instructed to take their assigned treatment orally with water once daily at approximately the same time each morning for the 12‐week treatment period. After randomization, participants returned to the clinical research site during Weeks 4 and 12 (end of treatment) for safety and PK assessments. Participants also completed a follow‐up visit 4 weeks after the end of treatment (Week 16) for final safety and PK assessments. Of the 119 participants randomized, 97 (81.5%) were included in an on‐treatment analysis, which excluded participants with plasma concentrations of obicetrapib <100 ng/mL at either or both Week 4 and Week 12.[12] The on‐treatment PK population (n = 57) included all randomized participants in the mITT population assigned to the two obicetrapib dose groups who had sufficient blood samples collected for valid estimation of PK parameters and excluded participants with plasma concentrations of obicetrapib <100 ng/mL at either or both Week 4 and Week 12. Fifty‐six (98.2%) participants in the on‐treatment PK population were included in the 4‐week post‐end of treatment PK analysis (TA‐8995‐202 CSR, NewAmsterdam Pharma)."}, "[4]": {"details": "Obicetrapib 10 mg + ezetimibe 10 mg + high‐intensity statin"}, "[5]": {"details": "Obicetrapib 10 mg + high‐intensity statin"}},
  "note": "Where two headings read alike, the source gives them in different places.",
  "data": [
    {"molecule": "CCOC(=O)N1c2ccc(C(F)(F)F)cc2C(N(Cc2cc(C(F)(F)F)cc(C(F)(F)F)c2)c2ncc(OCCCC(=O)O)cn2)CC1CC", "note": "(centres unmarked) [Obicetrapib]", "values": [
      {"measurement": "percent radioactivity profiled in human plasma", "setting": "[1]; n = 6 individuals, 24 h AUC pools, Figure 2", "result": "up to 92.8%"},
      {"measurement": "share of total drug‐related exposure in plasma", "setting": "[1]; single 10 mg 14C‐obicetrapib, fasted, healthy males n = 6", "result": "~ 79%"},
      {"measurement": "decrease of plasma levels of obicetrapib", "setting": "[2]; 15 weeks post‐treatment", "result": 98.5, "unit": "%"},
      {"measurement": "decrease of plasma levels of obicetrapib", "setting": "[2]; four weeks post‐treatment", "result": 92.2, "unit": "%"},
      {"measurement": "% Change in Plasma Level", "setting": "[3]; [4]", "result": "−92.2 (3.7) %"},
      {"measurement": "% Change in Plasma Level", "setting": "[3]; [5]", "result": "−93.7 (3.3) %"},
      {"measurement": "% Change in Plasma Level", "setting": "[3]; Obicetrapib 10 mg + high‐intensity statin, listed as obicetrapib", "result": "−93.7", "unit": "%"},
      {"measurement": "concentration at 12 weeks", "setting": "[3]; [4]", "result": 360, "unit": "ng/mL"},
      {"measurement": "concentration at 16 weeks", "setting": "[3]; [4]", "result": 28.7, "unit": "ng/mL"},
      {"measurement": "concentration at 12 weeks", "setting": "[3]; [5]", "result": 387, "unit": "ng/mL"},
      {"measurement": "concentration at 16 weeks", "setting": "[3]; [5]", "result": 24.5, "unit": "ng/mL"}
    ]}
  ]
}
